Test results reported in ChEMBL document CHEMBL1145459, “Novel vanilloid receptor-1 antagonists: 2. Structure-activity relationships of 4-oxopyrimidines leading to the selection of a clinical candidate” (J Med Chem, 2007).
Values after ≈ are worked out from the molar mass of the structure shown. Blank lines part the entries; values can stand above or below the compound they belong to. Active and inactive are the calls of the source. The rule behind the calls is not given here.

Assays:
[1] = molecular target: T1, Transient receptor potential cation channel subfamily V member 1 (Rattus norvegicus, UniProt O35433); assay: Antagonist activity at rat TRPV1 expressed in CHO cells assessed as inhibition of capsaicin-induced calcium influx; assay type: functional, cell-based
T1 sequence (O35433 whole entry): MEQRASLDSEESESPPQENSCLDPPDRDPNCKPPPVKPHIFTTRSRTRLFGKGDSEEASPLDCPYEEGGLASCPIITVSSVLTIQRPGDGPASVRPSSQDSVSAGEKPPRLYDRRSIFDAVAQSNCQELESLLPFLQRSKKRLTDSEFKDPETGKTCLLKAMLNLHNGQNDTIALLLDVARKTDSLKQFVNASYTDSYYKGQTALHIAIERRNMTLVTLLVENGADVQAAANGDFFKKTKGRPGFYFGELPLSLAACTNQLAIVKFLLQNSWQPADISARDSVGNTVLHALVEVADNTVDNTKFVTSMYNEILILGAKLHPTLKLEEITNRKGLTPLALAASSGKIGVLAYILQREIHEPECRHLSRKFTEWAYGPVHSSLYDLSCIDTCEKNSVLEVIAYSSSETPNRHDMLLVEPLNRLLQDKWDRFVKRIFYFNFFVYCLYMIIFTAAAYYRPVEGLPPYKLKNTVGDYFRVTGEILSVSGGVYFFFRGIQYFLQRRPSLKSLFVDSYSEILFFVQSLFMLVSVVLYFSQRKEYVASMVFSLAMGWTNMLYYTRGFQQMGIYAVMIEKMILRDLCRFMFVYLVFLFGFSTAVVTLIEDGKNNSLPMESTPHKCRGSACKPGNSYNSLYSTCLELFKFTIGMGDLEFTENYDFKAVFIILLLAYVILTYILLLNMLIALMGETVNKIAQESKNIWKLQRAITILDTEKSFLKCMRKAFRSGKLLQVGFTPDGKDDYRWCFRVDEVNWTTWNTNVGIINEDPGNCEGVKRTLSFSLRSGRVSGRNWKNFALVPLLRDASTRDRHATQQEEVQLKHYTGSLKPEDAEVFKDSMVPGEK

[2] = molecular target: T1, Transient receptor potential cation channel subfamily V member 1; assay: Antagonist activity at rat TRPV1 expressed in CHO cells assessed as inhibition of acid-induced calcium influx; assay type: functional, cell-based
[3] = Metabolic stability in human liver microsomes assessed as clearance; assay type: ADME, Microsome
[4] = Metabolic stability in rat liver microsomes assessed as clearance; assay type: ADME, Microsome
[5] = In vivo clearance in Sprague-Dawley rat at 1 mg/kg, iv; assay type: ADME, organism-based; set-up: dose 1 mg/kg, route intravenous
Rattus norvegicus [6] = assay: Blockade of capsaicin-induced hypothermia in rat at 3 mg/kg, po by telemetry model; assay type: functional
[7] = molecular target: T2, Transient receptor potential cation channel subfamily V member 1 (Homo sapiens, UniProt Q8NER1); assay: Antagonist activity at human TRPV1 expressed in CHO cells assessed as inhibition of capsaicin-induced calcium influx; assay type: functional, cell-based
T2 sequence (Q8NER1 whole entry): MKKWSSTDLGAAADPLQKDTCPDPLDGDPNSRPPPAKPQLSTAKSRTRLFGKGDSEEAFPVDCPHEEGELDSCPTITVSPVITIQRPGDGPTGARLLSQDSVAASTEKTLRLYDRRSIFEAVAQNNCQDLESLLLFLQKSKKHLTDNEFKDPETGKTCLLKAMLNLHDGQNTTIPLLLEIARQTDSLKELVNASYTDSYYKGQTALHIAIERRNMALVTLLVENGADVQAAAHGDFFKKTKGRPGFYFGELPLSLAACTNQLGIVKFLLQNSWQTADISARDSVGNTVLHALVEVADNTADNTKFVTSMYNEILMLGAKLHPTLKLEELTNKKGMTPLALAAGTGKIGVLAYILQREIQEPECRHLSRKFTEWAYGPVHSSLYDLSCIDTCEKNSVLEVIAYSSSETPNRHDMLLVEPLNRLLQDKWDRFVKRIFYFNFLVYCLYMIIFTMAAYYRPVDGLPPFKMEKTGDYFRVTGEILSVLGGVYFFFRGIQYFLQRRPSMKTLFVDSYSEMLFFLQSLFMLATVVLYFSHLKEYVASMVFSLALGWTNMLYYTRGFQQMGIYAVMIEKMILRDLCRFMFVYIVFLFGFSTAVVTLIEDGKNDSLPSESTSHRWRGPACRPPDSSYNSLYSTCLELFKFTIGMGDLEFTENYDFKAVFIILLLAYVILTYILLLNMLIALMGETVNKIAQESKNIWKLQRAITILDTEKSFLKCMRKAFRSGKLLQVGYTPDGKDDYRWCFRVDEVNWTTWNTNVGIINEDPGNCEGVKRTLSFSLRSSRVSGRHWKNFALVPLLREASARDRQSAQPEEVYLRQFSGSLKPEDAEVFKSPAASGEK

[8] = molecular target: T2, Transient receptor potential cation channel subfamily V member 1; assay: Antagonist activity at human TRPV1 expressed in CHO cells assessed as inhibition of acid-induced calcium influx; assay type: functional, cell-based
[9] = molecular target: T2, Transient receptor potential cation channel subfamily V member 1; assay: Antagonist activity at human TRPV1 expressed in CHO cells assessed as inhibition of heat-induced calcium influx; assay type: functional, cell-based
[10] = Clearance in Sprague-Dawley rat at 1 mg/kg, iv; assay type: ADME, organism-based; set-up: dose 1 mg/kg, route intravenous; conditions: in vivo
[11] = Half life in Sprague-Dawley rat at 1 mg/kg, iv; assay type: ADME, organism-based; set-up: dose 1 mg/kg, route intravenous; conditions: in vivo
[12] = AUC (0-infinity) in Sprague-Dawley rat at 1 mg/kg, iv; assay type: ADME, organism-based; set-up: time infinity, dose 1 mg/kg, route intravenous; conditions: plasma
[13] = Volume of distribution at steady state in Sprague-Dawley rat at 1 mg/kg, iv; assay type: ADME, organism-based; set-up: dose 1 mg/kg, route intravenous; conditions: in vivo, read-out: Vss
[14] = Bioavailability in fasted Sprague-Dawley rat at 5 mg/kg, po; assay type: ADME, organism-based; conditions: in vivo
[15] = Aqueous solubility in hydrochloric acid by high-throughput automated format; assay type: physicochemical
[16] = Solubility in PBS by high-throughput automated format; assay type: physicochemical
[17] = Solubility in simulated intestinal fluid by high-throughput automated format; assay type: physicochemical
[18] = Half life in rat; assay type: ADME, organism-based; conditions: in vivo
[19] = Bioavailability in fasted Sprague-Dawley rat at 3 mg/kg, po; assay type: ADME, organism-based; conditions: in vivo
[20] = AUC (0 to infinity) in rat at 1 mg/kg, iv; assay type: ADME, organism-based; set-up: time infinity, dose 1 mg/kg, route intravenous; conditions: plasma
[21] = Clearance in rat at 1 mg/kg, iv; assay type: ADME, organism-based; set-up: dose 1 mg/kg, route intravenous; conditions: in vivo
[22] = Volume of distribution at steady state at 1 mg/kg, iv; assay type: ADME, organism-based; set-up: dose 1 mg/kg, route intravenous; conditions: rat, in vivo, read-out: Vss
[23] = Half life in rat at 1 mg/kg, iv; assay type: ADME, organism-based; set-up: dose 1 mg/kg, route intravenous; conditions: in vivo
[24] = Bioavailability in rat at 1 mg/kg, po; assay type: ADME, organism-based; conditions: in vivo
[25] = AUC (0-infinity) in dog at 1 mg/kg, iv; assay type: ADME, organism-based, Canis lupus familiaris; set-up: dose 1 mg/kg, route intravenous, time infinity; conditions: plasma
[26] = Clearance in dog at 1 mg/kg, iv; assay type: ADME, organism-based, Canis lupus familiaris; set-up: dose 1 mg/kg, route intravenous; conditions: in vivo
[27] = Volume of distribution at steady state in dog at 1 mg/kg, iv; assay type: ADME, organism-based, Canis lupus familiaris; set-up: dose 1 mg/kg, route intravenous; conditions: in vivo, read-out: Vss
[28] = Half life in dog at 1 mg/kg, iv; assay type: ADME, organism-based, Canis lupus familiaris; set-up: dose 1 mg/kg, route intravenous; conditions: in vivo
[29] = Bioavailability in dog at 1 mg/kg, po; assay type: ADME, organism-based, Canis lupus familiaris; conditions: in vivo
[30] = AUC (0-infinity) in monkey at 1 mg/kg, iv; assay type: ADME, organism-based, Macaca mulatta; set-up: time infinity, dose 1 mg/kg, route intravenous; conditions: rhesus monkey, plasma
[31] = Clearance in monkey at 1 mg/kg, iv; assay type: ADME, organism-based, Macaca mulatta; set-up: dose 1 mg/kg, route intravenous; conditions: rhesus monkey, in vivo
[32] = Volume of distribution at steady state in monkey at 1 mg/kg, iv; assay type: ADME, organism-based, Macaca mulatta; set-up: dose 1 mg/kg, route intravenous; conditions: rhesus monkey, in vivo, read-out: Vss
[33] = Half life in monkey at 1 mg/kg, iv; assay type: ADME, organism-based, Macaca mulatta; set-up: dose 1 mg/kg, route intravenous; conditions: rhesus monkey, in vivo
[34] = Bioavailability in monkey at 1 mg/kg, po; assay type: ADME, organism-based, Macaca mulatta; conditions: rhesus monkey, in vivo
Rattus norvegicus [35] = assay: Efficacy in capsaicin-induced flinching in po dosed Sprague-Dawley rat; assay type: functional
Rattus norvegicus [36] = assay: Inhibition of capsaicin-induced flinching in Sprague-Dawley rat at 3 mg/kg, po upto 24 hrs; assay type: functional, organism-based; set-up: dose 3 mg/kg
Rattus norvegicus [37] = assay: Inhibition of CFA-induced paw thermal hyperalgesia in po dosed Sprague-Dawley rat; assay type: functional; conditions: read-out: MED
Rattus norvegicus [38] = assay: Inhibition of CFA-induced paw thermal hyperalgesia in Sprague-Dawley rat at 10 mg/kg, po relative to control; assay type: functional; set-up: scale not given: the % may be the effect or the level left

Compound: FC(F)(F)c1ccc(-c2cc(Oc3ccc4cccnc4c3)ncn2)cc1
half-life [18]: 2.8 h

Compound: O=c1ccc2cccc(Oc3cc(-c4ccc(C(F)(F)F)cc4)ncn3)c2[nH]1
IC50 [1]: > 4000 nM | IC50 [2]: > 4000 nM

Compound: Nc1nc2c(Oc3cc(-c4ccc(C(F)(F)F)cc4)ncn3)cccc2s1
IC50 [1]: 1.2 nM | IC50 [2]: > 4000 nM | microsomal CLint [3]: < 5 µL/min/mg | microsomal CLint [4]: 47 µL/min/mg | clearance [5]: 3.67 mL/min/kg

Compound: FC(F)(F)c1ccc(-c2cc(Oc3ccc4ccncc4c3)ncn2)cc1
IC50 [1]: 460 nM | IC50 [2]: > 4000 nM

Compound: CC(=O)N(C)c1nc2c(Oc3cc(-c4ccc(C(F)(F)F)cc4)ncn3)cccc2s1
IC50 [1]: > 4000 nM | IC50 [2]: 860 nM

Compound: FC(F)(F)c1ccc(-c2cc(Oc3ccnc4ccccc34)ncn2)cc1
IC50 [1]: > 4000 nM | IC50 [2]: > 4000 nM

More lines, main results first:

IC50 [1]: 63 nM | IC50 [2]: 16 nM | microsomal CLint [3]: < 14 µL/min/mg | microsomal CLint [4]: 15 µL/min/mg | clearance [5]: 71.7 mL/min/kg
Compound: Nc1cnc2cccc(Oc3cc(-c4ccc(C(F)(F)F)cc4)ncn3)c2n1
Activity (Rattus norvegicus [6]): 100%

IC50 [7]: 0.8 nM | IC50 [8]: 0.9 nM | IC50 [9]: 0.4 nM | microsomal CLint [3]: < 14 µL/min/mg | microsomal CLint [4]: < 14 µL/min/mg | clearance [5]: 4.33 mL/min/kg | clearance [10]: 3.28 mL/min/kg | half-life [11]: 6 h | AUC(0-inf) [12]: 5140 ng·h/mL | Vd [13]: 1.69 L/kg | bioavailability [14]: 7% | solubility [15]: < 1 µg/mL | solubility [16]: < 1 µg/mL | solubility [17]: 9.2 µg/mL (≈ 23 µM)
Compound: Nc1nc2c(Oc3cc(-c4ccc(C(F)(F)F)cc4)ncn3)cccc2[nH]c1=O

IC50 [2]: 1500 nM
Compound: CCC(=O)Nc1nc2c(Oc3cc(-c4ccc(C(F)(F)F)cc4)ncn3)cccc2s1

IC50 [2]: > 4000 nM
Compound: FC(F)(F)c1ccc(-c2cc(Oc3ccc4ccccc4n3)ncn2)cc1

IC50 [7]: 0.76 nM | IC50 [8]: 0.62 nM | IC50 [9]: 1.3 nM | microsomal CLint [3]: < 5 µL/min/mg | microsomal CLint [4]: 50 µL/min/mg | clearance [5]: 4.17 mL/min/kg | clearance [10]: 3.17 mL/min/kg | half-life [11]: 6.3 h | AUC(0-inf) [12]: 5400 ng·h/mL | Vd [13]: 1.56 L/kg | bioavailability [19]: 32% | solubility [15]: < 1 µg/mL | solubility [16]: < 1 µg/mL | solubility [17]: 6.6 µg/mL (≈ 15.3 µM) | AUC(0-inf) [20]: 8800 ng·h/mL | clearance [21]: 2 mL/min/kg | Vd [22]: 4 L/kg | half-life [23]: 31 h | bioavailability [24]: 51% | AUC(0-inf) [25]: 7400 ng·h/mL | clearance [26]: 2.33 mL/min/kg | Vd [27]: 7 L/kg | half-life [28]: 41 h | bioavailability [29]: 23% | AUC(0-inf) [30]: 37000 ng·h/mL | clearance [31]: 0.5 mL/min/kg | Vd [32]: 2.3 L/kg | half-life [33]: 62 h | bioavailability [34]: 52%
Compound: CC(=O)Nc1nc2c(Oc3cc(-c4ccc(C(F)(F)F)cc4)ncn3)cccc2s1 [AMG-517]
ED50 (Rattus norvegicus [35]): 0.35 mg/kg | Activity (Rattus norvegicus [36]): Active | minimal effective dose (Rattus norvegicus [37]): 0.83 mg/kg | Activity (Rattus norvegicus [38]): 35%
